ChEMBL document CHEMBL2331150, “Aaptamine derivatives from the Indonesian sponge Aaptos suberitoides” (J Nat Prod, 2013)

Key:
[1] = test system: L5178Y; experiment: Cytotoxic activity against mouse L5178Y cells assessed as growth inhibition at 10 ug/ml by MTT assay; type: functional; conditions: read-out: GI
[2] = test system: L5178Y; experiment: Cytotoxic activity against mouse L5178Y cells by MTT assay; type: functional, cell-based

COC1=Cc2ccnc3ccnc(c23)C1(OC)OC
inhibition of growth at 10 µg/mL [1]: 51.2%

COc1nc2c(OC)cc3ccnc4ccn(c1=O)c2c34
inhibition of growth at 10 µg/mL [1]: 38.6%

COc1cc2ccnc3ccn4cnc1c4c23
IC50 [2]: 13.5 µM
inhibition of growth at 10 µg/mL [1]: 98.7%

COc1cc2ccnc3ccn4c(=O)cnc1c4c23
inhibition of growth at 10 µg/mL [1]: 0%

COC1=Cc2ccnc3c(N)cnc(c23)C1=O
inhibition of growth at 10 µg/mL [1]: 64.4%

COc1cc2cc(C(=O)c3ccccc3)nc3c2c(c1O)NC=C3
IC50 [2]: 5.5 µM
inhibition of growth at 10 µg/mL [1]: 93.7%

COc1cc2ccnc3c2c(c1OC)NC=C3 [AAPTAMINE]
IC50 [2]: 8.3 µM
inhibition of growth at 10 µg/mL [1]: 100%
